# Columns and labels:
# [1] = tested on: HepG2; experiment: Mitochondrial toxicity in human HepG2 cells assessed as lactate dehydrogenase release up to 200 uM; format: cell-based
# [2] = Cytotoxicity against human HuH7 cells; format: cell-based, Huh-7
# [3] = tested on: Hepatitis B virus; experiment: Antiviral activity against entecavir-resistant Hepatitis B virus harboring L180M/M204V/S202G triple mutant infected in human HuH7 cells; format: functional, organism-based; details: Huh-7
# [4] = tested on: Hepatitis B virus; experiment: Antiviral activity against wild type Hepatitis B virus infected in human HuH7 cells; format: functional, organism-based; details: Huh-7
# [5] = tested on: HepG2; experiment: Mitochondrial toxicity in human HepG2 cells assessed as lactate dehydrogenase release up to 100 uM; format: cell-based
# [6] = tested on: Hepatitis B virus; experiment: Selectivity ratio of EC50 for entecavir-resistant Hepatitis B virus harboring L180M/M204V/S202G triple mutant to EC50 for wild type Hepatitis B virus; format: functional
structure (smiles),measurement,setting,value
Cc1cn([C@H]2C[C@H](N=[N+]=[N-])[C@@H](CO)O2)c(=O)[nH]c1=O [ZIDOVUDINE],Activity,[1],Toxic
Nc1ccn([C@@H]2CS[C@H](CO)O2)c(=O)n1 [LAMIVUDINE],CC50,[2],> 300 µM
same,Activity,[1],Non-toxic
same,EC50,[3],> 500 µM
same,EC50,[4],0.056 µM
same,EC90,[4],0.142 µM
C=C1[C@@H](n2cnc3c(N)ncnc32)[C@H](F)[C@H](O)[C@H]1COP(=O)(N[C@@H](C)C(=O)OC)Oc1ccccc1 (stereo not given in full),CC50,[2],> 300 µM
same,EC50,[3],0.054 µM
same,EC50,[4],0.062 µM
same,EC90,[4],0.46 µM
C=C1[C@@H](n2cnc3c(N)ncnc32)[C@H](F)[C@H](O)[C@H]1CO,CC50,[2],> 300 µM
same,EC50,[3],0.67 µM
same,EC50,[4],0.548 µM
same,EC90,[4],6 µM
same,Activity,[5],Non-toxic
C=C1[C@H](CO)[C@@H](O)C[C@@H]1n1cnc2c(=O)[nH]c(N)nc21.O [ENTECAVIR],CC50,[2],28 µM
same,Ratio EC50,[6],150
same,EC50,[3],1.2 µM
same,EC50,[4],0.008 µM
same,EC90,[4],0.033 µM
